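Tested at 5 concentrations; 48 h exposure; 96-well plates; endpoints linearly interpolated, else capped at highest concentration. GI50: concentration for 50% inhibition of growth.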 The source made the active and inactive calls. Cut-off read from the data, not from the text of the source: active = GI50 up to about 1.1 µM and inactive = higher.
Legend:
Experiment in all cases: inhibition of tumour cell growth, NCI panel, 48 h
UACC-257 = tested on: UACC-257
786-0 = tested on: 786-0
TK-10 = tested on: TK-10
OVCAR-8 = tested on: OVCAR-8
SF-268 = tested on: SF-268
CAKI-1 = tested on: CAKI-1
K562 = tested on: K562
HT-29 = tested on: HT-29
M14 = tested on: M14
NCI/ADR-RES = tested on: NCI/ADR-RES
HL-60 = tested on: HL-60
UACC-62 = tested on: UACC-62
SK-OV-3 = tested on: SK-OV-3
PC-3 = tested on: PC-3
A549 = tested on: A549
OVCAR-4 = tested on: OVCAR-4
COLO 205 = tested on: COLO 205
HCC 2998 = tested on: HCC 2998
DU-145 = tested on: DU-145

Measured: GI50

CC(Cn1c2c(c3cc(O)ccc31)CCc1ccc(O)cc1-2)N(C)C (stereo not drawn)
inactive: UACC-257 19.9 µM | 786-0 15.5 µM | TK-10 18.7 µM | OVCAR-8 17.7 µM | SF-268 20.7 µM | CAKI-1 22.4 µM | K562 34.5 µM | HT-29 18.2 µM | M14 14.1 µM | NCI/ADR-RES 20.2 µM | HL-60 64.1 µM | UACC-62 15.8 µM | SK-OV-3 25.2 µM | PC-3 12.4 µM

O=C(c1ccccc1)c1cc(-c2ccccc2)c(-c2ccccc2)[nH]c(=O)c1=O
inactive: UACC-257 41.5 µM | A549 41.7 µM | 786-0 > 100 µM | TK-10 56.2 µM | OVCAR-4 33.7 µM | COLO 205 27.2 µM | OVCAR-8 37.4 µM | SF-268 50.5 µM | CAKI-1 30.9 µM | HCC 2998 26.9 µM | K562 32.6 µM | HT-29 36.6 µM | M14 41.2 µM | NCI/ADR-RES 33.7 µM | HL-60 15.7 µM | UACC-62 25.1 µM | SK-OV-3 > 100 µM | PC-3 36.6 µM

Cc1cc(=O)c2cc(/N=C/c3ccc([N+](=O)[O-])o3)ccc2o1
inactive: UACC-257 28.1 µM | A549 > 100 µM | DU-145 > 100 µM | 786-0 64.4 µM | TK-10 > 100 µM | OVCAR-4 > 100 µM | COLO 205 > 100 µM | SF-268 88.7 µM | CAKI-1 > 100 µM | HCC 2998 > 100 µM | K562 33.7 µM | HT-29 > 100 µM | M14 > 100 µM | NCI/ADR-RES > 100 µM | HL-60 57.9 µM | UACC-62 56.1 µM | SK-OV-3 > 100 µM

CC(C)N1CCC2(CC1)NNc1ncccc1-n1cccc12
inactive: UACC-257 > 100 µM | A549 > 100 µM | 786-0 > 100 µM | TK-10 > 100 µM | OVCAR-4 > 100 µM | COLO 205 > 100 µM | OVCAR-8 > 100 µM | SF-268 > 100 µM | CAKI-1 > 100 µM | HCC 2998 > 100 µM | K562 > 100 µM | HT-29 > 100 µM | M14 > 100 µM | HL-60 > 100 µM

CCC(Oc1ccc(OC)c2c1C(=O)CCC2)C(=O)O (stereo not drawn)
inactive: UACC-257 > 100 µM | A549 > 100 µM | 786-0 > 100 µM | TK-10 > 100 µM | OVCAR-4 > 100 µM | COLO 205 > 100 µM | OVCAR-8 > 100 µM | SF-268 > 100 µM | HCC 2998 > 100 µM | K562 > 100 µM | HT-29 > 100 µM | M14 > 100 µM | HL-60 > 100 µM | UACC-62 > 100 µM | SK-OV-3 > 100 µM

Source: ChEMBL document CHEMBL1201862, “PubChem BioAssay data set” (2004)
